# Assay results from patent US4839374A, “4-((Bicyclic heterocyclyl)-methyl and -hetero)-piperidines” (Janssen Pharmaceutica, N.V., priority 1987, dated 1989).
# System: compound 48/80-induced lethality
# Assay: Protection of rats from compound 48/80-induced lethality
# Type: in vivo, rats of an inbred Wistar strain
# Conditions: Rattus norvegicus, 4 h, read-out: Compound 48/80 lethality test in rats ED50, s.c. or p.o. 1 h before compound 48/80 0.5 mg/kg i.v.; protection of 50% of animals, survival after 4 hours
# Procedure: Protection of rats from compound 48/80-induced lethality
# The protection from compound 48/80-induced lethal circulatory collapse appears to be a simple way of evaluating quantitatively the antihistaminic activity of test compounds. Male rats of an inbred Wistar strain, weighing 240-260 g were used in the experiment. After overnight starvation the rats were transferred to conditioned laboratories (temp.=21±1° C., relative humidity=65+5%). The rats were treated subcutaneously or orally with a test compound or with the solvent (NaCl solution, 0.9%). […] Survival after 4 hours is therefore considered to be a safe criterion of a protective effect of drug administration. The ED50 -values of the compounds of formula (I) are listed in the first column of tables 1 to 4. Said ED50 -values are the values in mg/kg body weight at which the tested compounds protect 50% of the tested animals against compound 48/80-induced lethality. The compounds of formula (I) and the pharmaceutically acceptable acid addition salts thereof are also potent serotonin-antagonists. The potency of the subject compounds as serotonin-antagonists is clearly evidenced by the results obtained in the following tests wherein the antagonistic activity of the subject compounds on the effect of serotonin is examined.
row,Compound,ED50
1,"C=CCN1CCC(Cc2nc3cccnc3n2Cc2ccc(F)cc2)CC1 [Compound 142, 3-[(4-fluorophenyl)methyl]-2-[[1-(2-propenyl)-4-piperidinyl]methyl]-3H-imidazo-[4,5-b]pyridine]",0.02 mg/kg
2,"COc1ccc(CCN2CCC(Cc3nc4ccccc4n3Cc3cscn3)CC2)cc1 [Compound 245, 2-[[1-[2-(4-methoxyphenyl)ethyl]-4-piperidinyl]methyl]-1-(4-thiazolylmethyl)-1H-benzimidazole]",0.02 mg/kg
3,c1ccc(Cn2c(CC3CCN(CCNc4ncccn4)CC3)nc3ccccc32)cc1 [Compound 344],0.02 mg/kg
4,Fc1ccc(Cn2c(CC3CCN(CCNc4cnccn4)CC3)nc3ccccc32)cc1 [Compound 368],0.01 mg/kg
5,"C=CCN1CCC(Cc2nc3ccccc3n2Cc2ccc(F)cc2)CC1 [Compound 144, 1-[(4-fluorophenyl)methyl]-2-[[1-(2-propenyl)-4-piperidinyl]methyl]-1H-benzimidazole]",0.04 mg/kg
6,"CSc1nc2cncnc2n1CCN1CCC(Cc2nc3ccccc3n2Cc2ccc(F)cc2)CC1 [Compound 507, 9-[2-[4-[[1-[(4-fluorophenyl)methyl]-1H-benzimidazol-2-yl]methyl]-1-piperidinyl]ethyl]-8-(methylthio)-9H-purine]",0.16 mg/kg
7,CCn1nnn(CCN2CCC(Cc3nc4ccccc4n3Cc3ccc(F)cc3)CC2)c1=O [Compound 123],0.01 mg/kg
8,Fc1ccc(Cn2c(CC3CCN(Cc4cn5cccnc5n4)CC3)nc3ccccc32)cc1 [Compound 183],0.01 mg/kg
9,Cc1nc2ccccn2c(=O)c1CCN1CCC(Cc2nc3ccccc3n2Cc2cscn2)CC1 [Compound 261],0.08 mg/kg
10,N#CCN1CCC(Cc2nc3ccccc3n2Cc2ccccc2)CC1 [Compound 297],0.08 mg/kg
11,Cn1c(=O)c2c(ncn2CCN2CCC(Cc3nc4cccnc4n3Cc3ccco3)CC2)n(C)c1=O [Compound 176],0.04 mg/kg
12,O=c1[nH]c2ccccc2n1CCCN1CCC(Sc2nc3ccccc3n2Cc2ccc(F)cc2)CC1 [Compound 255],0.16 mg/kg
13,CC(C)N1CCC(Cc2nc3ccccc3n2Cc2ccc(F)cc2)CC1 [Compound 83],0.01 mg/kg
14,"Fc1ccc(Cn2c(OC3CCNCC3)nc3ccccc32)cc1 [Compound 66, 1-[(4-fluorophenyl)methyl]-2-(4-piperidinyloxy)-1H-benzimidazole]",0.02 mg/kg
15,O=c1cc[nH]c(=O)n1CCN1CCC(Cc2nc3ccccc3n2Cc2ccco2)CC1 [Compound 175],0.02 mg/kg
16,"OC(COc1ccc2ccccc2c1)CN1CCC(Cc2nc3ccccc3n2Cc2ccc(F)cc2)CC1 (stereo not drawn) [Compound 116, 4-[[1-[(4-fluorophenyl)methyl]-1H-benzimidazol-2-yl]methyl]-α-[(2-naphthalenyloxy)methyl]-1-piperidineethanol]",0.16 mg/kg
17,Cc1nc2n(c(=O)c1CCN1CCC(Cc3nc4cccnc4n3Cc3ccccn3)CC1)CCCC2 [Compound 258],0.08 mg/kg
18,CN1CCC(Sc2nc3ccccc3n2Cc2ccc(F)cc2)CC1 [Compound 96],0.04 mg/kg
19,"Fc1ccc(Cn2c(CC3CCN(CCNc4ccc(Cl)nn4)CC3)nc3ccccc32)cc1 [Compound 378, 6-chloro-N-[2-[4-[[1-[(4-fluorophenyl)methyl]-1H-benzimidazol-2-yl]methyl]-1-piperidinyl]ethyl]-3-pyridazinamine]",0.04 mg/kg

row,Compound,ED50
1,"Fc1ccc(Cn2c(CC3CCN(CCSc4nc5cnccc5s4)CC3)nc3ccccc32)cc1 [Compound 388, 2-[[2-[4-[[1-[(4-fluorophenyl)methyl]-1H-benzimidazol-2-yl]methyl]-1-piperidinyl]ethyl]thio]thiazolo[4,5-c]pyridine]",0.16 mg/kg
2,CN1CCC(Cc2nc3ccccc3n2Cc2ccccc2)CC1 [Compound 93],0.04 mg/kg
3,"Nc1ccccc1C(=O)NCCN1CCC(Cc2nc3ccccc3n2Cc2ccco2)CC1 [Compound 466, 2-amino-N-[2-[4-[[1-(2-furanylmethyl)-1H-benzimidazol-2-yl]methyl]-1-piperidinyl]ethyl]benzamide]",0.02 mg/kg
4,"O=c1[nH]c2ccccc2c(=O)n1CCCCN1CCC(Cc2nc3cccnc3n2Cc2ccco2)CC1 [Compound 491, 3-[4-[4-[[3-(2-furanylmethyl)-3H-imidazo[4,5-b]pyridin-2-yl]methyl]-1-piperidinyl]butyl]-2,4-(1H,3H)-quinazolinedione]",0.16 mg/kg
5,"Fc1ccc(Cn2c(CC3CCN(CCNCc4ccccn4)CC3)nc3ccccc32)cc1 [Compound 427, N-[2-[4-[[1-[(4-fluorophenyl)methyl]-1H-benzimidazol-2-yl]methyl]-1-piperidinyl]ethyl]-2-pyridinemethanamine]",0.16 mg/kg
6,"CCNC(=O)NCCN1CCC(Cc2nc3cccnc3n2Cc2ccc(F)cc2)CC1 [Compound 429, N-ethyl-N'-[2-[4-[[3-[(4-fluorophenyl)methyl]-3H-imidazo[4,5-b]pyridin-2-yl]-methyl]-1-piperidinyl]ethyl]urea]",0.02 mg/kg
7,"Nc1ccccc1C(=O)NCCCCN1CCC(Cc2nc3ccccc3n2Cc2ccco2)CC1 [Compound 472, 2-amino-N-[4-[4-[[1-(2-furanylmethyl)-1H-benzimidazol-2-yl]methyl]-1-piperidinyl]butyl]benzamide]",0.04 mg/kg
8,CC(=O)N(C)c1ccccc1C(=O)NCCN1CCC(Cc2nc3ccccc3n2Cc2ccco2)CC1 [Compound 511],0.16 mg/kg
9,COc1ccc(Cn2c(CC3CCN(CCNc4nccs4)CC3)nc3cccnc32)cc1 [Compound 365],0.08 mg/kg
10,"Fc1ccc(Cn2c(CC3CCN(CCSc4ccccc4)CC3)nc3cccnc32)cc1 [Compound 147, 3-[(4-fluorophenyl)methyl]-2-[[1-[2-(phenylthio)ethyl]-4-piperidinyl]methyl]-3H-imidazo[4,5-b]pyridine]",0.08 mg/kg
11,"Fc1ccc(Cn2c(CC3CCN(Cc4ccccc4)CC3)nc3ccncc32)cc1 [Compound 25, 3-[(4-fluorophenyl)methyl]-2-[[1-(phenylmethyl)-4-piperidinyl]-methyl]-3H-imidazo[4,5-c]pyridine]",0.16 mg/kg
12,O=c1oc2ccccc2cc1CCN1CCC(Cc2nc3ccccc3n2Cc2ccco2)CC1 [Compound 165],0.02 mg/kg
13,COc1ccc(CCN2CCC(Cc3nc4cccnc4n3Cc3ccccn3)CC2)cc1 [Compound 234],0.02 mg/kg
14,"O=C(NCCN1CCC(Cc2nc3ccccc3n2Cc2ccc(F)cc2)CC1)c1cc(O)c2ccccc2n1 [Compound 444, N-[2-[4-[[1-[(4-fluorophenyl)methyl]-1H-benzimidazol-2-yl]methyl]-1-piperidinyl]ethyl]-4-hydroxy-2-quinolinecarboxamide]",0.16 mg/kg
15,COc1ccc(Cn2c(CC3CCN(CC#N)CC3)nc3ccccc32)cc1 [Compound 293],0.08 mg/kg
16,CNc1ccccc1C(=O)NCCN1CCC(Cc2nc3cccnc3n2Cc2ccc(F)cc2)CC1 [Compound 470],0.04 mg/kg
17,"Cc1ccc(Cn2c(CC3CCN(C)CC3)nc3ccccc32)cc1 [Compound 81, 1-[(4-methylphenyl)methyl]-2-[(1-methyl-4-piperidinyl)methyl]-1H-benzimidazole]",0.08 mg/kg
18,"Nc1ccccc1C(=O)NCCN1CCC(Cc2nc3cccnc3n2Cc2ccco2)CC1 [Compound 473, 2-amino-N-[2-[4-[[3-(2-furanylmethyl)-3H-imidazo[4,5-b]pyridin-2-yl]methyl]-1-piperidinyl]ethyl]benzamide]",0.02 mg/kg

# Same assay, conditions: s.c. or p.o. 1 h before compound 48/80 0.5 mg/kg i.v.; protection of 50% of animals, survival after 4 hours; 0.5 mg/kg, 240 min
row,Compound,Compound 48/80 lethality test in rats ED50
1,Cc1nc2n(c(=O)c1CCN1CCC(Cc3nc4ccccc4n3Cc3ccco3)CC1)CCS2 [Compound 167],0.01 mg/kg body weight
